# Molecular target: T1, SLO3 (Homo sapiens, UniProt A8MYU2)
# T1 sequence (A8MYU2 1-1149): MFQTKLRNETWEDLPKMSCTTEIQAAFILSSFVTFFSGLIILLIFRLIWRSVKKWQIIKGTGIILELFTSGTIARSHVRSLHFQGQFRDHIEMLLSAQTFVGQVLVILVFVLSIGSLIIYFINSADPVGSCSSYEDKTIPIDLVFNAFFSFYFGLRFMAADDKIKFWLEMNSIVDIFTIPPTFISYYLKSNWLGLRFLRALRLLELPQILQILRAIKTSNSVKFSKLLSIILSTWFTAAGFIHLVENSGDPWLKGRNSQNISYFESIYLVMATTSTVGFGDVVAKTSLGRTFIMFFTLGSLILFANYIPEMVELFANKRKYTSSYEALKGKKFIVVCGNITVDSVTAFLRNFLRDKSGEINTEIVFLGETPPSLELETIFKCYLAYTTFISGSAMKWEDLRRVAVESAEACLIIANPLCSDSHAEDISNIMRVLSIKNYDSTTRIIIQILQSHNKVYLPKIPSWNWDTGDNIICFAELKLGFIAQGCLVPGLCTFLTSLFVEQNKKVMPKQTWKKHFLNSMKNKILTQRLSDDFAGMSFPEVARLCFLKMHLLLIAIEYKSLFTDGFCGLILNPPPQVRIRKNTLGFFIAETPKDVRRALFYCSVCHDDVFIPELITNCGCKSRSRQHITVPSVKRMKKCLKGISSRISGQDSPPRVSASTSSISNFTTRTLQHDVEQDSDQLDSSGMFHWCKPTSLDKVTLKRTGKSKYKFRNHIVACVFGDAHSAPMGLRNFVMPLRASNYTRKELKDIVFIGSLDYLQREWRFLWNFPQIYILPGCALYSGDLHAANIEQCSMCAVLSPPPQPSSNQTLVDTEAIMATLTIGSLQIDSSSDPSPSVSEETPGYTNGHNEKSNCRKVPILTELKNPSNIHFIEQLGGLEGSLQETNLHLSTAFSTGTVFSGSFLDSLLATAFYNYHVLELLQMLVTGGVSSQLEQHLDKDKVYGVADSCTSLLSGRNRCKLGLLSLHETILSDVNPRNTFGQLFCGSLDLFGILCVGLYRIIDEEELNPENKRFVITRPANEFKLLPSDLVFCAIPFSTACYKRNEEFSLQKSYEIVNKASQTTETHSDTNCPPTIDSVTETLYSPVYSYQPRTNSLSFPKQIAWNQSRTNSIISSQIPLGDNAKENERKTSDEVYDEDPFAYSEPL
# T1 sequence (Q8N7C0 24-313 partner): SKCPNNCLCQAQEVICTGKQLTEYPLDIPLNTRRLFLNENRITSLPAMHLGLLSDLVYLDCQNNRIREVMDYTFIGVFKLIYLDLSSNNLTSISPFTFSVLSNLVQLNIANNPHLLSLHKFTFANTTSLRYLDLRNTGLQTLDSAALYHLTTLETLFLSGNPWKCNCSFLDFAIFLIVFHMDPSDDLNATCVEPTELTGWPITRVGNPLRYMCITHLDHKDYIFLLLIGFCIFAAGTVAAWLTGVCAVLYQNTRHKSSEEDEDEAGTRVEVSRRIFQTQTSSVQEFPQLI
# Assay: Tl+ flux assay
# Assay type: cell-based
smiles,measurement,value
FC(F)(F)c1cc(NC(=S)Nc2ccc(Br)cc2-c2nnn[nH]2)cc(C(F)(F)F)c1 [NS11021],Tl+ flux assay (activation; 100 μM used in the screen),found that the SLO1 activator NS11021 also activates SLO3 at high concentrations (Fig. 1B)
